One data set deals with cells. The following applies: pre-treatment of cells with leontopodic acid, Costa et al. 2010; cited from earlier work.
Data set [1] concerns neuritic network of rat primary cortical neurons. Description: Neuritic network of primary cortical neurons injured by Aβ1-42 peptide (MAP-2 staining). Type of data set: cell-based. The following applies: Aβ1-42 peptide 20 μM, 24 hours, 0.1% DMSO. On the procedure:
(§1) The purpose of this study is to evaluate the effects of the root extract on rat primary cortical neurons, intoxicated by Aβ peptide according to the in vitro Alzheimer disease model described in Callizot et al., 2013 (Callizot N. et al., Operational dissection of β-amyloid cytopathic effects on cultured neurons, J Neurosci Res. 2013, 91: 706-16). The neuron survival as well as the integrity of the neuritic network are evaluated.
(§2) Four concentrations are tested: 10 ng/mL, 100 ng/mL, 1 μg/mL and 10 μg/mL of dry extract diluted in water with 0.1% of DMSO.
(§3) Rat cortical neurons are cultured as described in Singer et al., 1999 (Singer C, et al., Mitogen-activated protein kinase pathway mediates estrogen neuroprotection after glutamate toxicity in primary cortical neurons. J Neurosci. 1999, 19: 2455-2463) and Callizot et al., (2013). In summary, gravid female rats are killed by cervical dislocation after 15 days of pregnancy. The foetuses are collected and immediately placed on an ice L15 Leibovitz medium (Pan Biotech, Batch: 8810315) added with 2% of penicillin (10,000 U/mL) and a streptomycin solution (l0 mg/mL) (PS; Pan Biotech, batch: 1451013) and 1% of bovine serum albumin (BSA; Pan Biotech, batch: K180713). […] The viable cells are counted with a Neubauer cytometer, using the trypan blue exclusion test. […]

Data set [2] has as its system rat primary cortical neurons. Description: Survival of primary cortical neurons injured by Aβ1-42 peptide (MAP-2 staining). The conditions noted are these: Aβ1-42 peptide 20 μM, 24 hours, 0.1% DMSO. Type of data set: cell-based. On the procedure: as §1, §2, §3

The source of these data is patent US20200375880A1, “PLANT EXTRACTS FROM THE TAGETES GENUS AND USES OF SAME” (PLANT ADVANCED TECHNOLOGIES PAT, priority 2016, published 2020).

For the compound `C[C@H](O)CC(=O)O[C@@H](C(=O)O)[C@@H](OC(=O)/C=C/c1ccc(O)c(O)c1)[C@H](OC(=O)/C=C/c1ccc(O)c(O)c1)[C@H](OC(=O)/C=C/c1ccc(O)c(O)c1)C(=O)O` [leontopodic acid], in the data set on cells, the cell survival result is “no improvement in the cell survival” and the “production of reactive oxygen species (ROS)” value is listed as “decrease in the production of reactive oxygen species (ROS)”.
For the compound “Aβ1-42 peptide: β-amyloid peptide (Bachem) used at 20 μM to intoxicate cortical neurons”, the “loss of the neuritic network induced by the peptide alone” value in data set [1] is listed as “significant loss of the neuritic network”. Further, in data set [2], the “neurone death induced by the peptide alone” value is on record as “significant neurone death”.
